Experimental data as given in patent US20220306647A1, “NOVEL INDOLE-2-CARBOXAMIDES ACTIVE AGAINST THE HEPATITUS B VIRUS (HBV)” (AICURIS GMBH & CO. KG, priority 2019, published 2022).
Where two headings read alike, the source gives them in different places.

How the values were obtained:
HBV (HepAD38 cells) = test: HBV replication assay: determination of HBV DNA from the supernatants of HepAD38 cells; format: cell-based; conditions: Hepatitis B virus, 144 h, HBV DNA in HepAD38 supernatant at day 6, qPCR, read-out: Cell activity
Experimental: Determination of HBV DNA from the Supernatants of HepAD38 Cells
The anti-HBV activity was analysed in the stable transfected cell line HepAD38, which has been described to secrete high levels of HBV virion particles (Ladner et al., 1997). In brief, HepAD38 cells were cultured at 37° C. at 5% CO2 and 95% humidity in 200 μl maintenance medium, which was Dulbecco's modified Eagle's medium/Nutrient Mixture F-12 (Gibco, Karlsruhe), 10% fetal bovine serum (PAN Biotech Aidenbach) supplemented with 50 μg/ml penicillin/streptomycin (Gibco, Karlsruhe), 2 mM L-glutamine (PAN Biotech, Aidenbach), 400 μg/ml G418 (AppliChem, Darmstadt) and 0.3 μg/ml tetracycline. Cells were subcultured once a week in a 1:5 ratio, but were usually not passaged more than ten times. For the assay 60,000 cells were seeded in maintenance medium without any tetracycline into each well of a 96-well plate and treated with serial half-log dilutions of test compound. To minimize edge effects the outer 36 wells of the plate were not used but were filled with assay medium. On each assay plate six wells for the virus control (untreated HepAD38 cells) and six wells for the cell control (HepAD38 cells treated with 0.3 μg/ml tetracycline) were allocated, respectively. In addition, one plate set with reference inhibitors like BAY 41-4109, entecavir, and lamivudine instead of screening compounds were prepared in each experiment. In general, experiments were performed thrice in triplicates. At day 6 HBV DNA from 100 μl filtrated cell culture supernatant (AcroPrep Advance 96 Filter Plate, […] Supor membran, PALL GmbH, Dreieich) was automatically purified on the MagNa Pure LC instrument using the MagNA Pure 96 DNA and Viral NA Small Volume Kit (Roche Diagnostics, Mannheim) according to the instructions of the manufacturer. EC50 values were calculated from relative copy numbers of HBV DNA In brief, 5 μl of the 100 μl eluate containing HBV DNA were subjected to PCR LC480 Probes Master Kit (Roche) together with 1 μM antisense primer […], 0.5 μM sense primer […], 0.3 μM hybprobes […]-FL and LC640-[…]-PH (TIBMolBiol, Berlin) to a final volume of 12.5 μl. The PCR was performed on the Light Cycler 480 real time system (Roche Diagnostics, Mannheim) using the following protocol: Pre-incubation for 1 min at 95° C., amplification: 40 cycles×(10 sec at 95° C., 50 sec at 60° C., 1 sec at 70° C.), cooling for 10 sec at 40° C. Viral load was quantitated against known standards using HBV plasmid DNA of pCH-9/3091 (Nassal et al., 1990, Cell 63: 1357-1363) and the LightCycler 480 SW 1.5 software (Roche Diagnostics, Mannheim) and EC50 values were calculated using non-linear regression with GraphPad Prism 6 (GraphPad Software Inc., La Jolla, USA).

[1] = molecular target: T1, HBV core protein (C-terminal truncated core protein, 149 amino acids of the N-terminal assembly domain, BODIPY-FL labelled) (UniProt P03146); test: Biochemical capsid assembly assay (fluorescence quenching)
T1 construct: fused on or other part: A single cysteine added after residue 149, at position 150; It carries the BODIPY-FL maleimide label
Outline: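 Fluorescence quenching of BODIPY-FL-labelled core dimers (1.0 to 2.0 μM) in 50 mM HEPES pH 7.5; compounds at 8 concentrations, 0.5 log-unit dilutions from top 100, 31.6 or 10 μM, 0.5% DMSO. Assembly started with NaCl to […]; fluorescence (ex 477/em 525 nm) read after 6 min. EC50 by non-linear regression.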

[2] = assembly started with NaCl, fluorescence read after 6 min, read-out: Assembly activity
[3] = read-out: Assembly activity, assembly started with NaCl, fluorescence read after 6 min

T1 sequence (P03146 whole entry, the tested form may be a part): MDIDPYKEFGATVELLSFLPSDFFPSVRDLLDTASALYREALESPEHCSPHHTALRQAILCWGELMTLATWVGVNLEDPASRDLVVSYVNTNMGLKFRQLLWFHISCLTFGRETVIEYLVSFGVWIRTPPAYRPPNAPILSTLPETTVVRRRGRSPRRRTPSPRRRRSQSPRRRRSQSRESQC

Row | Compound | EC50 (HBV (HepAD38 cells)) | IC50 [1, 2] | IC50 [1, 3]
1 | CN(C(=O)c1[nH]nc2c1CN(C(=O)c1cc3c(Cl)cccc3[nH]1)CC2)C1(c2ccc(C(=O)O)cc2)CC1 [Example 49, 4-{1-[N-methyl-5-(4-chloro-1H-indole-2-carbonyl)-2H,4H,5H,6H,7H-pyrazolo[4,3-c]pyridine-3-amido]cyclopropyl}benzoic acid] | 1 to 10 µM | < 5 µM | 
2 | CN(C(=O)c1cnn2c1CN(C(=O)c1cc3cc(F)c(Cl)cc3[nH]1)CC2)C1(c2ccc(C(=O)O)cc2)CC1 [Example 50, 4-{1-[N-methyl-5-(6-chloro-5-fluoro-1H-indole-2-carbonyl)-4H,5H,6H,7H-pyrazolo[1,5-a]pyrazine-3-amido]cyclopropyl}benzoic acid] | < 1 µM | < 5 µM | 
3 | CN(C(=O)c1cnn2c1CN(C(=O)c1cc3c(Cl)cccc3[nH]1)CC2)C1(c2ccc(C(=O)O)cc2)CC1 [Example 51, 4-{1-[N-methyl-5-(4-chloro-1H-indole-2-carbonyl)-4H,5H,6H,7H-pyrazolo[1,5-a]pyrazine-3-amido]cyclopropyl}benzoic acid] | < 1 µM | < 5 µM | 
4 | CN(C(=O)c1cnn2c1CN(C(=O)c1cc3c(F)c(F)ccc3[nH]1)CC2)C1(c2ccc(C(=O)O)cc2)CC1 [Example 52, 4-{1-[N-methyl-5-(4,5-difluoro-1H-indole-2-carbonyl)-4H,5H,6H,7H-pyrazolo[1,5-a]pyrazine-3-amido]cyclopropyl}benzoic acid] | < 1 µM | < 5 µM | 
5 | Cc1c(F)ccc2[nH]c(C(=O)N3CCn4ncc(C(=O)N(C)C5(c6ccc(C(=O)O)cc6)CC5)c4C3)cc12 [Example 53, 4-{1-[N-methyl-5-(5-fluoro-4-methyl-1H-indole-2-carbonyl)-4H,5H,6H,7H-pyrazolo[1,5-a]pyrazine-3-amido]cyclopropyl}benzoic acid] | < 1 µM | < 5 µM | 
6 | Cc1cc(F)cc2[nH]c(C(=O)N3CCn4ncc(C(=O)N(C)C5(c6ccc(C(=O)O)cc6)CC5)c4C3)cc12 [Example 54, 4-{1-[N-methyl-5-(6-fluoro-4-methyl-1H-indole-2-carbonyl)-4H,5H,6H,7H-pyrazolo[1,5-a]pyrazine-3-amido]cyclopropyl}benzoic acid] | < 1 µM | < 5 µM | 
7 | CN(C(=O)c1[nH]nc2c1CN(C(=O)c1cc3cc(F)c(Cl)cc3[nH]1)CC2)C1(c2ccc(C(=O)O)cc2)CC1 [Example 55, 4-{1-[N-methyl-5-(6-chloro-5-fluoro-1H-indole-2-carbonyl)-2H,4H,5H,6H,7H-pyrazolo[4,3-c]pyridine-3-amido]cyclopropyl}benzoic acid] | 1 to 10 µM |  | < 5 µM
8 | CN(C(=O)c1cnn2c1CN(C(=O)c1cc3cc(F)c(Cl)cc3[nH]1)CC2)C1(c2ncc(C(=O)O)cn2)CC1 [Example 57, 2-{1-[N-methyl-5-(6-chloro-5-fluoro-1H-indole-2-carbonyl)-4H,5H,6H,7H-pyrazolo[1,5-a]pyrazine-3-amido]cyclopropyl}pyrimidine-5-carboxylic acid] | 1 to 10 µM | < 5 µM | 
9 | Cc1cc(F)cc2[nH]c(C(=O)N3CCn4ncc(C(=O)N(C)C5(c6ncc(C(=O)O)cn6)CC5)c4C3)cc12 [Example 60, 2-{1-[N-methyl-5-(6-fluoro-4-methyl-1H-indole-2-carbonyl)-4H,5H,6H,7H-pyrazolo[1,5-a]pyrazine-3-amido]cyclopropyl}pyrimidine-5-carboxylic acid] | 1 to 10 µM | < 5 µM | 
10 | CN(C(=O)c1cnn2c1CN(C(=O)c1cc3ccccc3[nH]1)CC2)C1(COc2ccccc2C(=O)O)CC1 [Example 61, 2-({1-[N-methyl-5-(1H-indole-2-carbonyl)-4H,5H,6H,7H-pyrazolo[1,5-a]pyrazine-3-amido]cyclopropyl}methoxy)benzoic acid] | 1 to 10 µM | < 5 µM | 
11 | CN(C(=O)c1cnn2c1CN(C(=O)c1cc3ccccc3[nH]1)CC2)C1(COc2cccc(C(=O)O)c2)CC1 [Example 62, 3-({1-[N-methyl-5-(1H-indole-2-carbonyl)-4H,5H,6H,7H-pyrazolo[1,5-a]pyrazine-3-amido]cyclopropyl}methoxy)benzoic acid] | < 100 µM | < 5 µM | 
12 | CN1C(=O)c2c3c(nn2CCC12CC2)CCN(C(=O)c1cc2ccccc2[nH]1)C3 [Example 63, 4′-(1H-indole-2-carbonyl)-13′-methyl-4′, 8′,9′,13′-tetraazaspiro[cyclopropane-1,12′-tricyclo[7.5.0.0^2,]tetradecane]-1′,7′-dien-14′-one] | < 1 µM | < 5 µM | 
13 | CN1C(=O)c2c3c(nn2CCC12CC2)CCN(C(=O)c1cc2cc(F)c(Cl)cc2[nH]1)C3 [Example 64, 4′-(6-chloro-5-fluoro-1H-indole-2-carbonyl)-13′-methyl-4′,8′,9′,13′-tetraazaspiro[cyclopropane-1,12′-tricyclo[7.5.0.0^2, Q]tetradecane]-1′,7′-dien-14′-one] | < 1 µM | < 5 µM | 
14 | CN1C(=O)c2c3c(nn2CCC12CC2)CCN(C(=O)c1cc2c(Cl)cccc2[nH]1)C3 [Example 68, 4′-(4-chloro-1H-indole-2-carbonyl)-13′-methyl-4′, 8′,9′,13′-tetraazaspiro[cyclopropane-1,12′-tricyclo[7.5.0.0^2,7]tetradecane]-1′,7′-dien-14′-one] | < 1 µM | < 5 µM | 
15 | CN(C(=O)c1cnn2c1CN(C(=O)c1cc3c(Cl)cc(Cl)cc3[nH]1)CC2)C1(c2ccc(C(=O)O)cc2)CC1 [Example 69, 4-{1-[N-methyl-5-(4,6-dichloro-1H-indole-2-carbonyl)-4H,5H,6H,7H-pyrazolo[1,5-a]pyrazine-3-amido]cyclopropyl}benzoic acid] | < 1 µM |  | < 5 µM
16 | CCc1cc(F)cc2[nH]c(C(=O)N3CCn4ncc(C(=O)N(C)C5(c6ccc(C(=O)O)cc6)CC5)c4C3)cc12 [Example 74, 4-{1-[N-methyl-5-(4-ethyl-6-fluoro-1H-indole-2-carbonyl)-4H,5H,6H,7H-pyrazolo[1,5-a]pyrazine-3-amido]cyclopropyl}benzoic acid] | < 1 µM | < 5 µM | 
17 | CN(C(=O)c1cnn2c1CN(C(=O)c1cc3c(F)cc(F)cc3[nH]1)CC2)C1(c2ccc(C(=O)O)cc2)CC1 [Example 75, 4-{1-[N-methyl-5-(4,6-difluoro-1H-indole-2-carbonyl)-4H,5H,6H,7H-pyrazolo[1,5-a]pyrazine-3-amido]cyclopropyl}benzoic acid] | < 1 µM | < 5 µM | 
18 | CN(C(=O)c1cnn2c1CN(C(=O)c1cc3c(F)ccc(F)c3[nH]1)CC2)C1(c2ccc(C(=O)O)cc2)CC1 [Example 76, 4-{1-[N-methyl-5-(4,7-difluoro-1H-indole-2-carbonyl)-4H,5H,6H,7H-pyrazolo[1,5-a]pyrazine-3-amido]cyclopropyl}benzoic acid] | < 1 µM | < 5 µM | 
19 | CN(C(=O)c1cnn2c1CN(C(=O)c1cc3cc(F)c(F)cc3[nH]1)CC2)C1(c2ccc(C(=O)O)cc2)CC1 [Example 77, 4-{1-[N-methyl-5-(5,6-difluoro-1H-indole-2-carbonyl)-4H,5H,6H,7H-pyrazolo[1,5-a]pyrazine-3-amido]cyclopropyl}benzoic acid] | < 1 µM | < 5 µM | 
20 | CN(C(=O)c1cnn2c1CN(C(=O)c1cc3c(F)c(F)c(F)cc3[nH]1)CC2)C1(c2ccc(C(=O)O)cc2)CC1 [Example 78, 4-{1-[N-methyl-5-(4,5,6-trifluoro-1H-indole-2-carbonyl)-4H,5H,6H,7H-pyrazolo[1,5-a]pyrazine-3-amido]cyclopropyl}benzoic acid] | < 1 µM | < 5 µM | 
